Data from US9506031B2, “Methods and materials for increasing potency of cells” (University of Central Florida Research Foundation, Inc., priority 2004, dated 2016).

Test system: human mesenchymal stem cells (MeSCs)
Test: Cardiac differentiation of human MeSCs in co-culture with cardiomyocytes (H9c2), RT-PCR with cardiac specific primers
Type: cell-based
Settings: BrdU and/or 5-azaC 1-10 uM for 3 weeks, or nanog vector transfection; then co-culture with cardiomyocytes
Text: Cardiac differentiation of human mesenchymal stem cells (MeSCs) is achieved through treatment with nucleotide derivatives BrdU and 5-azaC and/or forced expression of embryonic stem cell gene nanog. Following treatment, cells were placed in a co-culture with cardiac cells (cardiomyocyte cell line H9c2). Human MeSCs plated in 6-well culture plates and expanded in serum-DMEM (Delbecco's Modified Eagle's Medium) containing 10% MeSC formulated fetal bovine serum (FBS, Stem Cell, Inc) containing antibiotics/antimycotics. MeSCs were treated with varying concentrations (1-10 uM) of BrdU and/or 5-azaC for 3 weeks or transfected with mammalian expression vector containing a nanog encoding sequence. Cell media was changed every three days prior to co-culture with cardiomyocytes. Cardiomyocytes were expanded and grown to near confluence in serum-DMEM with 10% non-conditioned FBS and antibiotics/antimycotics. To differentiate cardiac cells, serum media was replaced with plain DMEM containing only antibiotics and allowed to differentiate. Co-cultures were created by combining MeSCs with cardiac cells and culturing in cardiac media. Following co-culture, cells were treated with TRIzol and gene expression was assessed using RT-PCR and cardiac specific primers. […]

**Q.** `Nc1ncn([C@@H]2O[C@H](CO)[C@@H](O)[C@H]2O)c(=O)n1` [5-azaC] was tested. Which “expression of cardiac specific genes (RT-PCR, gel electrophoresis)” value did it give?
**A.** Its value is “expression of cardiac specific genes”.

**Q.** `O=c1[nH]c(=O)n([C@H]2C[C@H](O)[C@@H](CO)O2)cc1Br` [BrdU] was tested. Which “expression of cardiac specific genes (RT-PCR, gel electrophoresis)” value did it give?
**A.** The value was “expression of cardiac specific genes”.
